One assay deals with db/db mice. The experiment in a line: Efficacy test, 28-day daily intraperitoneal injection (blood glucose, insulin, HOMA-IR). The class given is in vivo, mouse. How it is done:
Fifty mice described in Test Example 2 were used as a test animal.
Specifically, 3.8 mg of the above peptide was dissolved in 4.75 mL of physiological saline to prepare a 0.8 mg/mL peptide solution (hereinafter may be referred to as “peptide solution 2”). Then, 1.75 mL of the peptide solution 2 was dissolved in 3.5 mL of physiological saline to prepare a 0.27 mg/mL peptide solution (hereinafter may be referred to as “peptide solution 3”). Further, 1 mL of the peptide solution 3 was dissolved in 2 mL of physiological saline to prepare a 0.09 mg/mL peptide solution (hereinafter may be referred to as “peptide solution 4”).
A metformin solution used for an activity control group was prepared as follows. Specifically, 120 mg of metformin (product of Sigma Co.) was dissolved in 4 mL of physiological saline to prepare a 30 mg/mL metformin solution.
The efficacy test was conducted using the following five administration groups: a solvent (physiological saline) control administration group, a 150 mg/kg metformin administration group (serving as an activity control group), a 4.00 mg/kg peptide (expressed by SEQ ID No. 1) administration group, a 1.33 mg/kg peptide administration group and a 0.44 mg/kg peptide administration group. Each administration group had 10 mice.
The above-prepared solutions were intraperitoneally injected every day to all of the mice of the test groups at the corresponding doses given in the following Table 4 for 28 days. The body weight, the fasting blood glucose level, the postprandial blood glucose level and the fasting blood insulin level were measured by the below-described measuring method according to the measurement schedule given in the following Table 5.
The calculating method for the HOMA-IR value is described below.
To measure the fasting blood glucose level and blood insulin level, 50 μL of blood was sampled from the postorbital region on Day 0, Day 14 and Day 28 after administration. The serum was obtained in the same manner as in Test Example 2.
The postprandial blood glucose level was measured using blood sampled from the tail vein on Day 1, Day 13, and Day 27 after administration.
The blood glucose level and blood insulin level were measured in the same manner as in Test Example 2.
The insulin resistance was determined by the HOMA (homeostasis model assessment) method using the following calculation formula. HOMA-IR (index of insulin resistance)=fasting insulin level (μU/mL)×fasting blood glucose level (mmol/L)/22.5
All of the values are indicated as “average value±average error.” The important differences between the groups and within each group were evaluated through one-way variance analysis and Dunnett's multiple comparison. The p-values equal to or lower than 0.05 were regarded as statistically significant.

In assay [1] the target is T1, phosphorylation of Ser727 of STAT3 by ERK2 (Homo sapiens, UniProt P28482).
T1 construct: purchased Biosource Inc. (Active ERK); Abcam Inc. (STAT3)
T1 sequence (P28482 whole entry): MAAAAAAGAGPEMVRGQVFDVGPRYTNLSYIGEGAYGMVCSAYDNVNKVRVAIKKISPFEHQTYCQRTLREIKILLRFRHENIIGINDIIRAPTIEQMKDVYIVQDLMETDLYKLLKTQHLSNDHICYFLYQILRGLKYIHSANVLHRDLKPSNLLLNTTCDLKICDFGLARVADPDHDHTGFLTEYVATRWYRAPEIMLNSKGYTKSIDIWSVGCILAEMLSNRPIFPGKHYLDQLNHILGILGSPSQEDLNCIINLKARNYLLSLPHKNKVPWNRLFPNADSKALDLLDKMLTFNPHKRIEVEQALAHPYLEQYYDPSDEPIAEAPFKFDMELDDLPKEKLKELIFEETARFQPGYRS
The experiment in a line: Phosphorylation inhibitory activity test by western blotting (anti-pS727 STAT). The class given is biochemical. The settings on record: 1 mM 5-iodotubercidin (final 1.14 mM), 22% DMSO (Sample 3); 30° C. 130 min; vs control Sample 1. A general note: Immunoblotting shows a protein as a band on a membrane.
Experimental: The following ingredients were used at a composition indicated in Table 1 to prepare a reaction liquid: 5× reaction buffer (250 mM tris-HCl (pH 7.5), 50 mM magnesium chloride, 0.1% by mass bovine serum albumin (BSA) and 5 mM dithiothreitol (DTT)), Active ERK solution (0.1 mg/mL) (product of Biosource Inc.), STAT3 solution (0.2 mg/mL) (product of Abcam Inc.) and distilled water.
Also, 5-iodotubercidin (product of Calbiochem Inc.) was used as a control compound.
The 5-iodotubercidin was suspended in DMSO so that the final concentration thereof was adjusted to 5 mM.
Furthermore, distilled water was added to the samples so as to appropriately adjust the volume thereof, whereby reaction mixtures were obtained.
Each of the reaction mixtures was incubated at 30° C. for 130 min to allow Active ERK2 to phosphorylate the Ser727 of the STAT3.
After that, to terminate the phosphorylation, 0.5M ethylenediamine tetraacetate (EDTA) was added in an amount of 2.75 μL to the reaction mixtures serving as a control (Table 2: Sample 1 or 2), and was added in an amount of 5.5 μL to the reaction mixture containing the 5-iodotubercidin (Table 2: Sample 3) or the reaction mixture containing the peptide (Table 2: Sample 4). […]

Where [2] appears, read: Metformin 150 mg/kg group, Day 0.
[3] abbreviates: Metformin 150 mg/kg intraperitoneal every day, Day 28.
Where [4] appears, read: Metformin 150 mg/kg intraperitoneal every day, Day 28 minus Day 0.

For the compound `CN(C)C(=N)N=C(N)N` [Metformin, metformin], the “Fasting blood insulin level” value in the assay on db/db mice (setting [2]) worked out at 8.81 ± 1.33 ng/mL; in the assay with db/db mice (setting [3]), 4.06 ± 0.84 ng/mL. Besides, the HOMA-IR value in the assay with db/db mice (setting [2]) is 139.4 ± 22.7; in the assay with db/db mice (Metformin 150 mg/kg intraperitoneal every day, Day 28, # p < 0.05 vs. solvent control group) it was 79.6 ± 17.7^#. Moreover, the “Fasting blood glucose level” value with db/db mice (Metformin 150 mg/kg group, Day 0, average ± average error, 10 mice) was 16.3 ± 1.3 mM; in the assay on db/db mice (Metformin 150 mg/kg intraperitoneal every day, Day 14), 19.3 ± 1.5 mM; in the assay with db/db mice (setting [3]), 22.0 ± 3.1 mM. The “Postprandial blood glucose level” value in the assay with db/db mice (Metformin 150 mg/kg group, Day 1, average ± average error, 10 mice) was found to be 22.5 ± 2.0 mM; with db/db mice (Metformin 150 mg/kg intraperitoneal every day, Day 13), 25.2 ± 2.0 mM; with db/db mice (Metformin 150 mg/kg intraperitoneal every day, Day 27), 28.1 ± 1.6 mM. Besides, the “Increment in fasting blood glucose level” value in the assay on db/db mice (setting [4]) amounted to 5.8 ± 2.4 mM; with db/db mice (Metformin 150 mg/kg intraperitoneal every day, Day 28 minus Day 0, listed as metformin) it was 5.8 ± 2.4 mM. The “Increment in fasting blood insulin level” value with db/db mice (setting [4]) was -4.94 ± 1.77 ng/mL. The “Increment in postprandial blood glucose level” value in the assay on db/db mice (Metformin 150 mg/kg intraperitoneal every day, Day 28 minus Day 0 as printed, # p < 0.05 vs. solvent control group) is listed as 4.3 ± 2.2^# mM. Besides, the “suppression of increase in fasting blood glucose level (significance)” value in the assay with db/db mice (Metformin 150 mg/kg, Day 0 to Day 28, vs solvent control group) is on record as “not statistically significant”. Also, in the assay with db/db mice (Metformin 150 mg/kg, Day 28), the “HOMA-IR value (index of insulin resistance), change” value is given as “significantly decreased”.
As to 5-iodotubercidin, in assay [1], the “band of STAT3 whose Ser727 has been phosphorylated (western blotting)” value is given as “lower in intensity than the band detected in the control”.

For the origin of these results see patent publication US8492105B2, “Screening method for an insulin resistance improving agent or a therapeutic agent for diabetes” (Fujitsu Limited, priority 2009, dated 2013).
